Like-named read-outs stand apart in the source and are kept apart here.
Experiments:
[1] = target: His-GST-PARP7 (Homo sapiens (Human), UniProt Q7Z3E1); assay: PARP7 biochemical assay; details: read-out: PARP7 IC50
[2] = target: PARP2 (Homo sapiens (Human), UniProt Q9UGN5); assay: PARP2 biochemical assay
[3] = tested on: NCI-H1373 (human lung adenocarcinoma) cells; assay: Cell proliferation assay (CellTiter-Glo), NCI-H1373; type: cell-based; details: Homo sapiens, NCI-H1373, 144 h, read-out: NCI-H1373 GI50

His-GST-PARP7, sequence (Q7Z3E1 whole entry): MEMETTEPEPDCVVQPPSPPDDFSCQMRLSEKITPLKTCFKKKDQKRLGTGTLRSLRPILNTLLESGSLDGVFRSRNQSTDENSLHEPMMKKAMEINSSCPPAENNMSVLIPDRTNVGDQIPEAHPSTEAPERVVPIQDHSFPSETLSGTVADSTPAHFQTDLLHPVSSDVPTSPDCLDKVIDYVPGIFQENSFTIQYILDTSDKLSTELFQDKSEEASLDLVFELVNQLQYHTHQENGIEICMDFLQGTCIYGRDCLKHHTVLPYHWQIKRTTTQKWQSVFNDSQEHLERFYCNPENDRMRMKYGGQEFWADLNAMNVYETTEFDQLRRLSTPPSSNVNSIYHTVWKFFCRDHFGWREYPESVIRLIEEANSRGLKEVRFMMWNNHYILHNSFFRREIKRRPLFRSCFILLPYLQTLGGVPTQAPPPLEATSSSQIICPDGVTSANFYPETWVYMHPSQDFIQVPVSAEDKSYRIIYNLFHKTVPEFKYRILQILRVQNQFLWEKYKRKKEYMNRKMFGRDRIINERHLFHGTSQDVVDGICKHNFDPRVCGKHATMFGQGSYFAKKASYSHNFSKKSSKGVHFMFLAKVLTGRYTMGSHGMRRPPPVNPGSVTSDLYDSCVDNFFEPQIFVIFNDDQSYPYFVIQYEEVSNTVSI
PARP2, sequence (Q9UGN5 whole entry): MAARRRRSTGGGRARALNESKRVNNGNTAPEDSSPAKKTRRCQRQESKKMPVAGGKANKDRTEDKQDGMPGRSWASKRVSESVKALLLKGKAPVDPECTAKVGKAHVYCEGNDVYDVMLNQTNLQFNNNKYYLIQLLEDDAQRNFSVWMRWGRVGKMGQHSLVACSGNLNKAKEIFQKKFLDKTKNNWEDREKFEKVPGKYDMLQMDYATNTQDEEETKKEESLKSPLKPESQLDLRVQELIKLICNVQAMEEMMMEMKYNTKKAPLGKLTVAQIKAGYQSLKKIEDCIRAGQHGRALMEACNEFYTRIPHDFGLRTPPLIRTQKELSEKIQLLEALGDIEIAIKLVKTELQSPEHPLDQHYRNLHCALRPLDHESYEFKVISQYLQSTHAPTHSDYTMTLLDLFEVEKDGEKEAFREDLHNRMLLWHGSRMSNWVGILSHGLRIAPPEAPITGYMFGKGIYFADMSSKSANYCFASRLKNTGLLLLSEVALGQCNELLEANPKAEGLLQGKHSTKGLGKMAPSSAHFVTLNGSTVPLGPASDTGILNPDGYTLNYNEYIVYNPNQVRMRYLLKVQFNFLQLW

| Compound | IC50 [1] | IC50 ([2]; read-out: PARP2 IC50) | GI50 ([3]; 6 days, CellTiter-Glo) | IC50 [2] | GI50 [3] |
| --- | --- | --- | --- | --- | --- |
| N#Cc1ccc(N2CCN(C(=O)c3cc(Cc4n[nH]c(=O)c5ccc(OC6CC6)cc45)ccc3F)CC2)nc1 [Example 13, 6-(4-(5-((7-Cyclopropoxy-4-oxo-3,4-dihydrophthalazin-1-yl)methyl)-2-fluorobenzoyl)piperazin-1-yl)nicotinonitrile] | < 50 nM | – | – | 100 to 500 nM | 100 to 1000 nM |
| CNc1ccc2c(=O)[nH]nc(Cc3ccc(F)c(C(=O)N4CCN(c5ccc(C#N)cn5)CC4)c3)c2c1 [Example 16, 6-(4-(2-fluoro-5-((7-(methylamino)-4-oxo-3,4-dihydrophthalazin-1-yl)methyl)benzoyl)piperazin-1-yl)nicotinonitrile] | < 50 nM | < 50 nM | – | – | 1000 to 5000 nM |
| N#Cc1ccc(N2CCN(C(=O)c3cc(Cc4n[nH]c(=O)c5ccc(NCC6CC6)cc45)ccc3F)CC2)nc1 [Example 20, 6-(4-(5-((7-(cyclopropylmethylamino)-4-oxo-3,4-dihydrophthalazin-1-yl)methyl)-2-fluorobenzoyl)piperazin-1-yl)nicotinonitrile] | < 50 nM | < 50 nM | 100 to 1000 nM | – | – |
| N#Cc1ccc(N2CCN(C(=O)c3cc(Cc4n[nH]c(=O)c5ccc(N6CC7(CC(O)C7)C6)cc45)ccc3F)CC2)nc1 [Example 23, 6-(4-(2-Fluoro-5-((7-(6-hydroxy-2-azaspiro[3.3]heptan-2-yl)-4-oxo-3,4-dihydrophthalazin-1-yl)methyl)benzoyl)piperazin-1-yl)nicotinonitrile] | < 50 nM | 500 to 2000 nM | > 5000 nM | – | – |
| CC#Cc1ccc2c(=O)[nH]nc(Cc3ccc(F)c(C(=O)N4CCN(c5ccc(C#N)cn5)CC4C)c3)c2c1 (stereo not shown) [Example 61, 6-(4-(2-Fluoro-5-((4-oxo-7-(prop-1-yn-1-yl)-3,4-dihydrophthalazin-1-yl)methyl)benzoyl)-3-methylpiperazin-1-yl)nicotinonitrile] | < 50 nM | < 50 nM | – | – | – |
| CC#Cc1ccc2c(=O)[nH]nc(Cc3ccc(F)c(C(=O)N4C5CCC4CN(c4ccc(C#N)cn4)C5)c3)c2c1 [Example 62, 6-(8-(2-Fluoro-5-((4-oxo-7-(prop-1-yn-1-yl)-3,4-dihydrophthalazin-1-yl)methyl)benzoyl)-3,8-diazabicyclo[3.2.1]octan-3-yl)nicotinonitrile] | < 50 nM | – | – | 500 to 2000 nM | – |
| CC#Cc1ccc2c(=O)[nH]nc(Cc3cc(F)c(F)c(C(=O)N4CCN(c5ccc(C#N)cn5)CC4)c3)c2c1 [Example 74, 6-(4-(2,3-Difluoro-5-((4-oxo-7-(prop-1-ynyl)-3,4-dihydrophthalazin-1-yl)methyl)benzoyl)piperazin-1-yl)nicotinonitrile] | < 50 nM | 50 to 100 nM | 100 to 1000 nM | – | – |
| CC#Cc1cc(Cl)c2c(=O)[nH]nc(Cc3ccc(F)c(C(=O)N4CCN(c5ccc(C#N)cn5)CC4)c3)c2c1 [Example 85, 6-(4-(5-((5-chloro-4-oxo-7-(prop-1-yn-1-yl)-3,4-dihydrophthalazin-1-yl)methyl)-2-fluorobenzoyl)piperazin-1-yl)nicotinonitrile] | 100 to 500 nM | 50 to 100 nM | < 100 nM | – | – |
| CC#Cc1ccc2c(=O)[nH]nc(Cc3ccc(F)c(C(=O)NCCN(CC)c4ccc(C#N)cn4)c3)c2c1 [Example 197, N-(2-((5-cyanopyridin-2-yl)(ethyl)amino)ethyl)-2-fluoro-5-((4-oxo-7-(prop-1-yn-1-yl)-3,4-dihydrophthalazin-1-yl)methyl)benzamide] | < 50 nM | > 2000 nM | – | – | – |
| CC#Cc1ccc2c(=O)[nH]nc(Cc3ccc(F)c(C(=O)N(C)CCN(CC)c4ccc(C#N)cn4)c3)c2c1 [Example 198, N-(2-((5-Cyanopyridin-2-yl)(ethyl)amino)ethyl)-2-fluoro-N-methyl-5-((4-oxo-7-(prop-1-yn-1-yl)-3,4-dihydrophthalazin-1-yl)methyl)benzamide] | < 50 nM | > 2000 nM | – | – | – |

The next lines start with results.

| IC50 [1] | IC50 ([2]; read-out: PARP2 IC50) | GI50 ([3]; 6 days, CellTiter-Glo) | Compound | IC50 [2] | GI50 [3] |
| --- | --- | --- | --- | --- | --- |
| < 50 nM | 100 to 500 nM | 100 to 1000 nM | N#Cc1ccc(N2CCN(C(=O)c3cc(Cc4n[nH]c(=O)c5ccc(OC(F)(F)F)cc45)ccc3F)CC2)nc1 [Example 30, 6-(4-(2-fluoro-5-((4-oxo-7-(trifluoromethoxy)-3,4-dihydrophthalazin-1-yl)methyl)benzoyl)piperazin-1-yl)nicotinonitrile] | – | – |
| < 50 nM | > 2000 nM | 100 to 1000 nM | N#Cc1ccc(N2CCN(C(=O)c3cc(Cc4n[nH]c(=O)c5ccc(N6CC7(CCC7)C6)cc45)ccc3F)CC2)nc1 [Example 31, 6-(4-(2-Fluoro-5-((4-oxo-7-(2-azaspiro[3.3]heptan-2-yl)-3,4-dihydrophthalazin-1-yl)methyl)benzoyl)piperazin-1-yl)nicotinonitrile] | – | – |
| < 50 nM | 500 to 2000 nM | 100 to 1000 nM | N#Cc1ccc(N2CCN(C(=O)c3cc(Cc4n[nH]c(=O)c5ccc(N6CC(C(F)(F)F)C6)cc45)ccc3F)CC2)nc1 [Example 34, 6-(4-(2-Fluoro-5-((4-oxo-7-(3-(trifluoromethyl)azetidin-1-yl)-3,4-dihydrophthalazin-1-yl)methyl)benzoyl)piperazin-1-yl)nicotinonitrile] | – | – |
| 50 to 100 nM | < 50 nM | 100 to 1000 nM | CC(F)(F)c1ccc2c(=O)[nH]nc(Cc3ccc(F)c(C(=O)N4CCN(c5ccc(C#N)cn5)CC4)c3)c2c1 [Example 36, 6-(4-(5-((7-(1,1-Difluoroethyl)-4-oxo-3,4-dihydrophthalazin-1-yl)methyl)-2-fluorobenzoyl)piperazin-1-yl)nicotinonitrile] | – | – |
| < 50 nM | 100 to 500 nM | – | CN(C)CC#Cc1ccc2c(=O)[nH]nc(Cc3ccc(F)c(C(=O)N4CCN(c5ncc(C(F)(F)F)cn5)CC4)c3)c2c1 [Example 46, 6-(3-(Dimethylamino)prop-1-yn-1-yl)-4-(4-fluoro-3-(4-(5-(trifluoromethyl)pyrimidin-2-yl)piperazine-1-carbonyl)benzyl)phthalazin-1(2H)-one] | – | – |
| 100 to 500 nM | 500 to 2000 nM | – | O=C(c1cc(Cc2n[nH]c(=O)c3ccc(C#CC4CC4)cc23)ccc1F)N1CCN(c2ncc(C(F)(F)F)cn2)CC1 [Example 47, 6-(Cyclopropylethynyl)-4-(4-fluoro-3-(4-(5-(trifluoromethyl)pyrimidin-2-yl)piperazine-1-carbonyl)benzyl)phthalazin-1(2H)-one] | – | – |
| 100 to 500 nM | 100 to 500 nM | – | O=C(c1cc(Cc2n[nH]c(=O)c3ccc(C#CC(F)(F)F)cc23)ccc1F)N1CCN(c2ncc(C(F)(F)F)cn2)CC1 [Example 49, 4-(4-Fluoro-3-(4-(5-(trifluoromethyl)pyrimidin-2-yl)piperazine-1-carbonyl)benzyl)-6-(3,3,3-trifluoroprop-1-yn-1-yl)phthalazin-1(2H)-one] | – | – |
| < 50 nM | 100 to 500 nM | – | CC#Cc1ccc2c(=O)[nH]nc(Cc3ccc(F)c(C(=O)N4CCN(c5ccc(C#N)cn5)C(C)C4)c3)c2c1 (stereo not shown) [Example 72, 6-(4-(2-Fluoro-5-((4-oxo-7-(prop-1-ynyl)-3,4-dihydrophthalazin-1-yl)methyl)benzoyl)-2-methylpiperazin-1-yl)nicotinonitrile] | – | – |
| < 50 nM | > 2000 nM | 100 to 1000 nM | CC#Cc1ccc2c(=O)[nH]nc(C(C)N(C)CCC(=O)N3CCN(c4ncc(C(F)(F)F)cn4)CC3)c2c1 (stereo not shown) [Example 193, 4-(1-(methyl(3-oxo-3-(4-(5-(trifluoromethyl)pyrimidin-2-yl)piperazin-1-yl)propyl)amino)ethyl)-6-(prop-1-yn-1-yl)phthalazin-1(2H)-one] | – | – |

Source: patent US20260055079A1, “PHTHALAZINONE COMPOUNDS AS PARP7 INHIBITORS” (AZKARRA THERAPEUTICS, INC., priority 2022, published 2026)
